Assay results published in patent US20100168038A1, “USE OF COMPOUNDS IN COMBINATION WITH GAMMA-IRRADIATION FOR THE TREATMENT OF CANCER” (priority 2006, published 2010).
Several values for one entry are separate records, joined by “and”; a condition that tells them apart may be missing. Identical values can stand only once. Residues, ends and D or L forms follow the SMILES beside them.

Target: T1, TPP II (Mus musculus, UniProt Q64514)
T1 construct: 1 ug of high molecular weight protein was used as enzyme in peptidase assays; endogenous in cells
T1 sequence (Q64514 2-1262 limits assumed): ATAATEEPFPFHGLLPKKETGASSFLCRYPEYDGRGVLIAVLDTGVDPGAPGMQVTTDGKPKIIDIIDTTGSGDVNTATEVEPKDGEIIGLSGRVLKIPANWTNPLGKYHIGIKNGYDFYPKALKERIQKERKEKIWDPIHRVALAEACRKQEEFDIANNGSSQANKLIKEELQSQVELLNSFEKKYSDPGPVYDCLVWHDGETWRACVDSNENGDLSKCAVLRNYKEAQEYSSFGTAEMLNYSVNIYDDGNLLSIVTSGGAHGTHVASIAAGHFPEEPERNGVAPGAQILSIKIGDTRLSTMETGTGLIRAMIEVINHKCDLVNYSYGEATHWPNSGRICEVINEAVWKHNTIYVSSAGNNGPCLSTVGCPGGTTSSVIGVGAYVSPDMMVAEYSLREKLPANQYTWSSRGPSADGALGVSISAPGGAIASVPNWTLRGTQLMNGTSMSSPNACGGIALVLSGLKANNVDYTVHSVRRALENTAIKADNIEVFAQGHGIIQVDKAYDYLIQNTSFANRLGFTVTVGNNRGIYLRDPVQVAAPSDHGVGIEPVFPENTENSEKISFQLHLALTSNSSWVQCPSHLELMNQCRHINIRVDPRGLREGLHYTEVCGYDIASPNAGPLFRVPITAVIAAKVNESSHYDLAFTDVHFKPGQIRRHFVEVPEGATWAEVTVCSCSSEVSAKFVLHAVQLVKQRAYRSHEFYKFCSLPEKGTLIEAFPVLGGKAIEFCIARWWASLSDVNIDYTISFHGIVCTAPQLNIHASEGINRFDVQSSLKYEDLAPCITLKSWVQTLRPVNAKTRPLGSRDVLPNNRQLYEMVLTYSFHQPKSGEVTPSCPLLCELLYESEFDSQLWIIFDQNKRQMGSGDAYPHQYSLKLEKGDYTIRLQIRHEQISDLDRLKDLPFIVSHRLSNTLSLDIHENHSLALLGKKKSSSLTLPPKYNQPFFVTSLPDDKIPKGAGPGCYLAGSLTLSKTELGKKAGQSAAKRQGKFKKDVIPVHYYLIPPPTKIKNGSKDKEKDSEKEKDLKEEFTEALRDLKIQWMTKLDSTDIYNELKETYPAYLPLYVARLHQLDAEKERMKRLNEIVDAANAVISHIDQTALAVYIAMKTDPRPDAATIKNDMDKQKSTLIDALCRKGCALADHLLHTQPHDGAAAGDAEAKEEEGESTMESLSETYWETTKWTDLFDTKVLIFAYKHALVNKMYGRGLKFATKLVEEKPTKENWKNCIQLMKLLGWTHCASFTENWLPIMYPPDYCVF
Assay: TPP II peptidase assay: cleavage of fluorogenic substrate AAF-AMC by enriched TPP II
Assay type: biochemical
Settings: for cleavage of AAF-AMC in presence of compound, mean: mean of 3 readings; for cleavage of AAF-AMC in presence of compound: single reading
Experimental: In one non-limiting example of purification of TPP II, 100×10^6 cells (such as EL-4 cells) were sedimented and lysed by vortexing in glass beads and homogenisation buffer (50 mM Tris Base pH 7.5, 250 mM Sucrose, 5 mM MgCl2, 1 mM DTT). Cellular lysates were subjected to differential centrifugation; first the cellular homogenate was centrifuged at 14,000 rpm for 15 min, and then the supernatant was transferred to ultra-centrifugation tubes. Next the sample was ultra-centrifugated at 100,000×g for 1 hour, and the supernatant (denoted as cytosol in most biochemical literature) was subjected to 100,000×g centrifugation for 5 hours, which sedimented high molecular weight cytosolic proteins/protein complexes. The resulting pellet dissolved in 50 mM Tris Base pH 7.5, 30% Glycerol, 5 mM MgCl2, and 1 mM DTT, and 1 ug of high molecular weight protein was used as enzyme in peptidase assays.
It is possible to test the activity of TPP II using for example the substrate AAF-AMC (Sigma, St. Louis, Mo.). This may for example be used at 100 uM concentration in 100 ul of test buffer composed of 50 mM Tri Base pH 7.5, 5 mM MgCl2 and 1 mM DTT. It is possible to stop reactions using dilution with 900 ul 1% SDS solution. Cleavage activity may be measured for example by emission at 460 nm in a LS50B Luminescence Spectrometer (Perkin Elmer, Boston, Mass.).
Protein Purification, Peptidase Assays and Analysis of DNA Fragmentation. 100×10^6 cells were sedimented and lysed by vortexing in glass beads and homogenisation buffer (50 mM Tris Base pH 7.5, 250 mM Sucrose, 5 mM MgCl2, 1 mM DTT). Cellular lysates were submitted to differential centrifugation where a supernatant from a 1 hour centrifugation at 100,000×g (cytosol) was submitted to 100,000×g centrifugation for 3-5 hours, which sedimented high molecular weight cytosolic proteins/protein complexes. The resulting pellet dissolved in 50 mM Tris Base pH 7.5, 30% Glycerol, 5 mM MgCl2, and 1 mM DTT, and 1 micro-g of high molecular weight protein was used as enzyme in peptidase assays or in Western blotting for TPP II expression. To test the activity of TPP II we used the substrate AAF-AMC (Sigma, St. Louis, Mo.), at 100 micro-M concentration in 100 micro-l of test buffer composed of 50 mM Tri Base pH 7.5, 5 mM MgCl2 and 1 mM DTT. Cleavage activity was measured by emission at 460 nm in a LS50B Luminescence Spectrometer (Perkin Elmer, Boston, Mass.). For analysis of DNA fragmentation cells were seeded in 12-well plates at 10^6 cells/ml and exposed to 25 micro-M etoposide, a DNA topoisomerase II inhibitor commonly used as an apoptosis-inducing agent, to starvation (50% PBS). Cells were seeded at 10^6 cells/ml in 12-well plates and incubated for the indicated times, usually 18-24 hours. DNA from EL-4 control and adapted cells was purified by standard chloroform extraction, and 2.5 micro-g of DNA was loaded on 1.8% agarose gel for detection of DNA from apoptotic cells.
TPP II protein was enriched, and then a TPP II-preferred fluorogenic substrate AAF-AMC was used. 100×10^6 cells were sedimented and lysed by vortexing in glass beads and homogenisation buffer (50 mM Tris Base pH 7.5, 250 mM Sucrose, 5 mM MgCl2, 1 mM DTT). Cellular lysates were subjected to differential centrifugation; first the cellular homogenate was centrifuged at 14,000 rpm for 15 min, and then the supernatant was transferred to ultra-centrifugation tubes. Next the sample was ultra-centrifugated at 100,000×g for 1 hour, and the supernatant (denoted as cytosol in most biochemical literature) was subjected to 100,000×g centrifugation for 5 hours, which sedimented high molecular weight cytosolic proteins/protein complexes.

CC(C)C[C@H](NC(=O)CNC(=O)OCc1ccccc1)C(=O)N[C@@H](C)C(=O)O [Z-GLA-OH, Z-Gly-Leu-Ala-OH] (HELM PEPTIDE1{[O=C(OCc1ccccc1)[*:2]].G.L.A}$$$$V2.0)
TPPII inhibition, in words: efficiently inhibited TPPII
cleavage of AAF-AMC in presence of compound, mean (compound 1 nM): 32.85 fluorometric units
cleavage of AAF-AMC in presence of compound (compound 1 nM): 32.54 fluorometric units and 32.61 fluorometric units and 33.41 fluorometric units
cleavage of AAF-AMC in presence of compound, mean (compound 10 nM): 22.70 fluorometric units
cleavage of AAF-AMC in presence of compound (compound 10 nM): 21.74 fluorometric units and 21.93 fluorometric units and 24.44 fluorometric units
cleavage of AAF-AMC in presence of compound, mean (compound 100 nM): 14.35 fluorometric units
cleavage of AAF-AMC in presence of compound (compound 100 nM): 14.43 fluorometric units and 14.26 fluorometric units and 14.37 fluorometric units
cleavage of AAF-AMC in presence of compound, mean (compound 1 uM): 11.60 fluorometric units
cleavage of AAF-AMC in presence of compound (compound 1 uM): 11.43 fluorometric units and 11.9 fluorometric units and 11.46 fluorometric units
cleavage of AAF-AMC in presence of compound, mean (compound 10 uM): 7.21 fluorometric units
cleavage of AAF-AMC in presence of compound (compound 10 uM): 6.47 fluorometric units and 7.66 fluorometric units and 7.49 fluorometric units
cleavage of AAF-AMC in presence of compound, mean (compound 100 uM): 1.38 fluorometric units
cleavage of AAF-AMC in presence of compound (compound 100 uM): 1.14 fluorometric units and 1.44 fluorometric units and 1.55 fluorometric units
Ki (partially purified TPPII enzyme, fluorimetry, read-out: Ki50, inhibited TPPII cleavage of the substrate AAF-AMC): ~10 nM
